Laboratory results taken from the supplement of paper PMC8671470.
± gives the standard deviation of the averaged measurements.

Legend:
Settings in all cases: 72 h
[1] = tested on: KCL-22
Summary of the method: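 Fifteen myeloid leukaemia cell lines were seeded in RPMI 1640 at densities titrated to the linear growth range and placed in 384-well plates with acoustically pre-printed compounds at five tenfold doses from 1 to 10,000 nM, in duplicate. After 72 h at 37 °C with 5% CO2, luminescent ATP viability was normalised to vehicle and to a positive control at 10 µM, and curves were fitted with a four-parameter log-logistic model. The IC50 was obtained from these fits.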

[2] = tested on: K-562; experiment: cell viability (% survival relative to DMSO control, bortezomib = 0%); higher = less cytotoxic
Summary of the method: (§1)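 Percent survival figures are means of duplicate wells. They were obtained by CellTiter-Glo luminescence after 10 AML and 5 CML cell lines spent 72 h at 37 °C with 5% CO2 in 384-well plates with compounds at 1, 10, 100, 1000 or 10000 nM. Vehicle was set to 100% and a 10 µM positive control to 0%.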

[3] = tested on: HL-60; experiment: as above
Summary of the method: as §1

[4] = tested on: HEL; experiment: as above
Summary of the method: as §1

[5] = tested on: SHI-1; experiment: as above
Summary of the method: as §1

[6] = tested on: THP-1; experiment: as above
Summary of the method: as §1

[7] = tested on: BV-173; experiment: as above
Summary of the method: as §1

[8] = tested on: KG-1; experiment: as above
Summary of the method: as §1

[9] = tested on: KU-812; experiment: as above
Summary of the method: as §1

[10] = tested on: MOLM-13; experiment: as above
Summary of the method: as §1

[11] = tested on: MV4-11; experiment: as above
Summary of the method: as §1

[12] = tested on: LAMA-84; experiment: as above
Summary of the method: as §1

[13] = tested on: ML-2; experiment: as above
Summary of the method: as §1

[14] = tested on: KCL-22; experiment: as above
Summary of the method: as §1

[15] = tested on: Mono-Mac-6; experiment: as above
Summary of the method: as §1

[16] = tested on: NOMO-1; experiment: as above
Summary of the method: as §1

[17] = tested on: HL-60; experiment: cell viability (% survival relative to DMSO control); higher = less cytotoxic
Summary of the method: (§2)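 HL-60 cells in RPMI 1640 with 10% FBS were rescreened against the full library on 384-well plates at five tenfold concentrations, 1–10,000 nM, in duplicate. Each screen was run with DMSO or 100 nM of one of three metabolic inhibitors, for 72 h at 37 °C, 5% CO2. Viability was read by CellTiter-Glo and normalised to DMSO and 10 μM proteasome-inhibitor wells. Where given, area under the curve came from four-parameter log-logistic fits (drc, PharmacoGx).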

[18] = tested on: HL-60; experiment: area under dose-response curve (viability, 1 nM-10 uM) (fraction (0-1)); higher = more sensitive
Summary of the method: as §2

CCCCCCCCCCCC(=O)c1c(O)c(C(=O)CCCCCCCCCCC)c(O)c(C2CC(c3ccc(O)cc3)Oc3cc(O)ccc32)c1O (stereo unspecified)
Settings | IC50 (cell viability) [µM]
[1] | > 10

cell viability [%]
Settings | 1 nM | 10 nM | 100 nM | 1000 nM | 10000 nM
[2] | 97.9 | 91.5 | 99.4 | 117 | 108
[3] | 118 | 119 | 70.4 | 105 | 114
[4] | 108 | 97.8 | 115 | 110 | 87
[5] | 95.1 | 111 | 102 | 112 | 104
[6] | 101 | 114 | 107 | 104 | 102
[7] | 119 | 114 | 102 | 101 | 89
[8] | 101 | 117 | 128 | 101 | 81.8
[9] | 102 | 104 | 110 | 102 | 105
[10] | 101 | 119 | 89.5 | 99.1 | 82.9
[11] | 95.9 | 115 | 101 | 98.5 | 90.1
[12] | 105 | 99.9 | 114 | 103 | 99.1
[13] | 105 | 114 | 118 | 116 | 104
[14] | 107 | 113 | 115 | 123 | 102
[15] | 86.1 | 112 | 106 | 103 | 91.6
[16] | 108 | 118 | 110 | 111 | 96.7

cell viability [%], [17]
Settings | 0.001 µM | 0.01 µM | 0.1 µM | 1 µM | 10 µM
co-treatment: AZD3965 100 nM | 95.8 ± 4.7 | 104 ± 2.3 | 97.5 ± 3.7 | 107 ± 11 | 101 ± 3.6
co-treatment: DMSO vehicle | 99.8 ± 5.4 | 98.29 ± 0.34 | 99.11 ± 0.51 | 102.2 ± 0.57 | 104.7 ± 0.063
co-treatment: GSK2194069 100 nM | 101 ± 3.5 | 96.5 ± 1.7 | 101 ± 3.1 | 104 ± 11 | 100 ± 3.4
co-treatment: pictilisib 100 nM | 107 ± 18 | 107 ± 1.4 | 99.9 ± 7.8 | 101 ± 3.3 | 95.4 ± 10

C=C(C=NNC(=N)N)NNC(=N)N [Mitoguazone]
Settings | area under dose-response curve, co-treatment: AZD3965 100 nM | area under dose-response curve, co-treatment: DMSO vehicle | area under dose-response curve, co-treatment: GSK2194069 100 nM | area under dose-response curve, co-treatment: pictilisib 100 nM | cell viability, 1 nM [%] | cell viability, 10 nM [%] | cell viability, 100 nM [%] | cell viability, 1000 nM [%] | cell viability, 10000 nM [%]
[2] | – | – | – | – | 96.1 | 105 | 114 | 67 | 29.3
[3] | – | – | – | – | 85.2 | 73.2 | 148 | 97.7 | 32.9
[4] | – | – | – | – | 103 | 108 | 97.5 | 93.2 | 50.4
[5] | – | – | – | – | 93.8 | 89.2 | 95.4 | 59.8 | 20.6
[6] | – | – | – | – | 101 | 104 | 94.9 | 76.1 | 43.6
[7] | – | – | – | – | 105 | 111 | 107 | 71 | 13.3
[8] | – | – | – | – | 94.9 | 97.2 | 103 | 84.7 | 34.8
[9] | – | – | – | – | 105 | 107 | 96.5 | 83 | 30.6
[10] | – | – | – | – | 93.7 | 88.3 | 133 | 52.2 | 13.8
[11] | – | – | – | – | 105 | 99.2 | 115 | 59.8 | 10.4
[12] | – | – | – | – | 99.9 | 104 | 100 | 86.6 | 24.4
[13] | – | – | – | – | 97.7 | 104 | 100 | 56.6 | 24.7
[14] | – | – | – | – | 94.4 | 100 | 103 | 86.9 | 42
[15] | – | – | – | – | 92.4 | 92.3 | 85.5 | 55.3 | 18.1
[16] | – | – | – | – | 94.9 | 102 | 90.9 | 61.7 | 16.2
[18] | 0.0689 | < 0.0301 | 0.0353 | 0.0324 | – | – | – | – | –

Settings | IC50 (cell viability) [µM]
[1] | 4.4

cell viability [%], [17]
Settings | 0.001 µM | 0.01 µM | 0.1 µM | 1 µM | 10 µM
co-treatment: AZD3965 100 nM | 98 ± 2.1 | 102 ± 2.5 | 102 ± 1.6 | 93.1 ± 4.7 | 48.6 ± 1.8
co-treatment: DMSO vehicle | 99.2 ± 4.5 | 100.1 ± 0.87 | 97.8 ± 2.5 | 101 ± 2.3 | 69.6 ± 3
co-treatment: GSK2194069 100 nM | 101 ± 3.5 | 112 ± 10 | 102.2 ± 0.58 | 98.3 ± 1 | 76.9 ± 2.1
co-treatment: pictilisib 100 nM | 108 ± 1.3 | 120 ± 2.9 | 104 ± 6.1 | 112 ± 4.9 | 56.7 ± 3.5

O[C@H]1[C@H]2[C@H](O)CCCN2C[C@H]1O [Swainsonine]
Settings | area under dose-response curve, co-treatment: AZD3965 100 nM | area under dose-response curve, co-treatment: DMSO vehicle | area under dose-response curve, co-treatment: GSK2194069 100 nM | area under dose-response curve, co-treatment: pictilisib 100 nM | cell viability, 1 nM [%] | cell viability, 10 nM [%] | cell viability, 100 nM [%] | cell viability, 1000 nM [%] | cell viability, 10000 nM [%]
[2] | – | – | – | – | 109 | 107 | 102 | 101 | 107
[3] | – | – | – | – | 107 | 88 | 104 | 95.8 | 112
[4] | – | – | – | – | 99.2 | 83.9 | 108 | 97.3 | 92.5
[5] | – | – | – | – | 93.8 | 110 | 109 | 108 | 102
[6] | – | – | – | – | 102 | 102 | 106 | 97.8 | 101
[7] | – | – | – | – | 98.1 | 104 | 98.3 | 90.8 | 86.1
[8] | – | – | – | – | 108 | 107 | 92.2 | 87.9 | 93.1
[9] | – | – | – | – | 104 | 100 | 100 | 99.8 | 109
[10] | – | – | – | – | 97.8 | 94.2 | 102 | 87.7 | 85.6
[11] | – | – | – | – | 102 | 113 | 87.2 | 69.8 | 69.3
[12] | – | – | – | – | 112 | 94 | 103 | 99.7 | 98.6
[13] | – | – | – | – | 97.9 | 97.7 | 108 | 86.4 | 79.5
[14] | – | – | – | – | 88.9 | 92.3 | 102 | 98.1 | 89.9
[15] | – | – | – | – | 101 | 106 | 106 | 90 | 102
[16] | – | – | – | – | 109 | 103 | 99.4 | 94.7 | 94.1
[18] | < 0.0301 | < 0.0301 | < 0.0301 | < 0.0301 | – | – | – | – | –

Settings | IC50 (cell viability) [µM]
[1] | > 10

cell viability [%], [17]
Settings | 0.001 µM | 0.01 µM | 0.1 µM | 1 µM | 10 µM
co-treatment: AZD3965 100 nM | 97.6 ± 3.9 | 103.58 ± 0.00097 | 97.5 ± 0.97 | 98.4 ± 5.8 | 102 ± 2.5
co-treatment: DMSO vehicle | 99.37 ± 0.87 | 104 ± 3.2 | 102 ± 3.9 | 103 ± 0.51 | 108 ± 13
co-treatment: GSK2194069 100 nM | 98.4 ± 2.5 | 110 ± 12 | 97.2 ± 3 | 90.3 ± 3.1 | 106 ± 16
co-treatment: pictilisib 100 nM | 101 ± 4.7 | 108 ± 11 | 91.9 ± 9.1 | 120 ± 25 | 106 ± 11
